Data reported in ChEMBL document CHEMBL3259619, “Antibacterial activity of a series of N2,N4-disubstituted quinazoline-2,4-diamines” (J Med Chem, 2014).
≈ marks a conversion by molar mass, not a printed value. Calls of active or inactive are those of the source. Unless noted, the calls are words filed in the database; no cut-off is given here.

Columns and labels:
Staphylococcus aureus [1] = assay: Antimicrobial activity against methicillin-resistant Staphylococcus aureus CBD-635 assessed as zone of inhibition at 5 mg/ml after 24 hrs by disk diffusion assay; type: functional; details: CBD-635, 24 h, read-out: IZ
Staphylococcus aureus [2] = assay: Antimicrobial activity against methicillin-resistant Staphylococcus aureus CBD-635 assessed as complete inhibition of bacterial growth after overnight incubation; type: functional
[3] = Aqueous solubility of the compound at pH 7.4 after 18 hrs incubation by HPLC; type: physicochemical
[4] = Aqueous solubility of the compound at pH 2 after 18 hrs incubation by HPLC; type: physicochemical
[5] = Lipophilicity, log D of the compound at pH 7.4; type: physicochemical; details: buffer
[6] = Lipophilicity, log D of the compound at pH 3; type: physicochemical; details: buffer
Staphylococcus aureus [7] = assay: Bactericidal activity against methicillin-resistant Staphylococcus aureus CBD-635 assessed as bacterial killing; type: functional
[8] = Cytotoxicity against human A549 cells assessed as cell viability recovery up to 407 uM by MTT assay relative to untreated control; type: cell-based; details: read-out: Activity
[9] = Cytotoxicity against human A549 cells assessed as cell viability recovery at 1.6 to 16 uM by MTT assay relative to untreated control; type: cell-based; details: read-out: Activity
[10] = Cytotoxicity against human A549 cells assessed as cell viability recovery at 41 to 410 uM by MTT assay relative to untreated control; type: cell-based; details: read-out: Activity
Staphylococcus aureus [11] = assay: Antimicrobial activity against methicillin-resistant Staphylococcus aureus CBD-635 assessed as complete inhibition of bacterial growth at 5 times MIC after overnight incubation in presence of tetrahydrofolic acid; type: functional, organism-based
Staphylococcus aureus [12] = assay: Antimicrobial activity against trimethoprim-resistant Staphylococcus aureus assessed as complete inhibition of bacterial growth after 24 hrs; type: functional, organism-based
Staphylococcus aureus [13] = assay: Antimicrobial activity against quinazoline-resistant Staphylococcus aureus assessed as complete inhibition of bacterial growth after 24 hrs; type: functional, organism-based
Staphylococcus aureus [14] = assay: Antimicrobial activity against wild type Staphylococcus aureus in presence of sulfamethoxazole; type: functional
Staphylococcus aureus [15] = assay: Antimicrobial activity against Staphylococcus aureus infected Galleria mellonella assessed as increase in larvae survival at 5 times MIC; type: functional
Staphylococcus aureus [16] = assay: Antimicrobial activity against Staphylococcus aureus infected Galleria mellonella assessed as increase in larvae survival at 10 times MIC; type: functional
Staphylococcus aureus [17] = assay: Antimicrobial activity against Staphylococcus aureus infected in mouse assessed as increase in mouse survival at 5 times MIC via tail vein relative to untreated control; type: functional
[18] = pampa, pH 7.4
[19] = pampa, pH 4
[20] = Cytotoxicity against human A549 cells assessed as cell viability recovery up to 440 uM by MTT assay relative to untreated control; type: cell-based; details: read-out: Activity
[21] = Cytotoxicity against human A549 cells assessed as cell viability recovery at 1.8 to 8.8 uM by MTT assay relative to untreated control; type: cell-based; details: read-out: Activity
[22] = Cytotoxicity against human A549 cells assessed as cell viability recovery at 18 uM by MTT assay relative to untreated control; type: cell-based; details: read-out: Activity
[23] = Cytotoxicity against human A549 cells assessed as cell viability recovery at 440 uM by MTT assay relative to untreated control; type: cell-based; details: read-out: Activity
Staphylococcus = assay: Antibacterial activity against Staphylococcus; type: functional
Streptococcus = assay: Antibacterial activity against Streptococcus; type: functional
Moraxella catarrhalis = assay: Antimicrobial activity against Moraxella catarrhalis; type: functional
Haemophilus influenzae = assay: Antimicrobial activity against Haemophilus influenzae; type: functional
Listeria monocytogenes = assay: Antimicrobial activity against Listeria monocytogenes; type: functional
Legionella pneumophila = assay: Antimicrobial activity against Legionella pneumophila; type: functional
Neisseria sp. = assay: Antimicrobial activity against Neisseria species; type: functional
Staphylococcus aureus [24] = assay: Antibacterial activity against methicillin-resistant Staphylococcus aureus SA-1417 infected in mouse assessed as protection of mouse; type: functional; details: read-out: PD50
Enterococcus = assay: Antibacterial activity against Enterococcus; type: functional
[25] = Cytotoxicity against human A549 cells assessed as cell viability recovery up to 459 uM by MTT assay relative to untreated control; type: cell-based; details: read-out: Activity
[26] = Cytotoxicity against human A549 cells assessed as cell viability recovery at up to 9.2 uM by MTT assay relative to untreated control; type: cell-based; details: read-out: Activity
[27] = Cytotoxicity against human A549 cells assessed as cell viability recovery at 36.7 to 459 uM by MTT assay relative to untreated control; type: cell-based; details: read-out: Activity
Staphylococcus aureus [28] = assay: Antimicrobial activity against wild type Staphylococcus aureus; type: functional
[29] = Cytotoxicity against human A549 cells assessed as cell viability recovery up to 367 uM by MTT assay relative to untreated control; type: cell-based; details: read-out: Activity
[30] = Cytotoxicity against human A549 cells assessed as cell viability recovery at 1.5 uM by MTT assay relative to untreated control; type: cell-based; details: read-out: Activity
[31] = Cytotoxicity against human A549 cells assessed as cell viability recovery at 370 uM by MTT assay relative to untreated control; type: cell-based; details: read-out: Activity
Staphylococcus aureus [32] = assay: Antimicrobial activity against N2,N4-dibenzylquinazoline-2,4-diamine-induced methicillin-resistant Staphylococcus aureus CBD-635 mutant assessed as complete inhibition of bacterial growth after overnight incubation; type: functional
Staphylococcus aureus [33] = assay: Antimicrobial activity against N2,N4-dibenzylquinazoline-2,4-diamine-induced methicillin-resistant Staphylococcus aureus CBD-635 mutant M1 assessed as complete inhibition of bacterial growth after overnight incubation; type: functional
Staphylococcus aureus [34] = assay: Antimicrobial activity against N2,N4-dibenzylquinazoline-2,4-diamine-induced methicillin-resistant Staphylococcus aureus CBD-635 mutant M2 assessed as complete inhibition of bacterial growth after overnight incubation; type: functional
Staphylococcus aureus [35] = assay: Antimicrobial activity against N2,N4-dibenzylquinazoline-2,4-diamine-induced methicillin-resistant Staphylococcus aureus CBD-635 mutant M3 assessed as complete inhibition of bacterial growth after overnight incubation; type: functional
Staphylococcus aureus [36] = assay: Antimicrobial activity against N2,N4-dibenzylquinazoline-2,4-diamine-induced methicillin-resistant Staphylococcus aureus CBD-635 mutant M4 assessed as complete inhibition of bacterial growth after overnight incubation; type: functional
Staphylococcus aureus [37] = assay: Antimicrobial activity against N2,N4-dibenzylquinazoline-2,4-diamine-induced methicillin-resistant Staphylococcus aureus CBD-635 mutant M5 assessed as complete inhibition of bacterial growth after overnight incubation; type: functional
Staphylococcus aureus [38] = assay: Antimicrobial activity against N2,N4-dibenzylquinazoline-2,4-diamine-induced methicillin-resistant Staphylococcus aureus CBD-635 mutant M6 assessed as complete inhibition of bacterial growth after overnight incubation; type: functional
Staphylococcus aureus [39] = assay: Antimicrobial activity against N2,N4-dibenzylquinazoline-2,4-diamine-induced methicillin-resistant Staphylococcus aureus CBD-635 mutant M7 assessed as complete inhibition of bacterial growth after overnight incubation; type: functional
Staphylococcus aureus [40] = assay: Antimicrobial activity against Staphylococcus aureus infected in mouse assessed as increase in mouse survival at 10 times MIC via tail vein relative to untreated control; type: functional, organism-based
Staphylococcus aureus [41] = assay: Antimicrobial activity against methicillin-resistant Staphylococcus aureus infected in mouse assessed as complete protection to mouse at MIC via tail vein relative to untreated control; type: functional, organism-based

| SMILES | zone of inhibition at 5000 µg/mL (Staphylococcus aureus [1]) [mm] | MIC (Staphylococcus aureus [2]) [µM] | solubility at 18 h [3] [µM] | solubility at 18 h [4] [µM] | logD [5] | logD [6] | MBC50 (Staphylococcus aureus [7]) | inhibition (Staphylococcus aureus [11]) | inhibition (Staphylococcus aureus [12]) | inhibition (Staphylococcus aureus [13]) | fractional inhibitory concentration index (FICI) (Staphylococcus aureus [14]) | Survival (Staphylococcus aureus [15]) [%] | Survival (Staphylococcus aureus [16]) [%] | Survival (Staphylococcus aureus [17]) [%] | permeability [18] [×10⁻⁶ cm/s] | permeability [19] [×10⁻⁶ cm/s] | further results |
| --- | --- | --- | --- | --- | --- | --- | --- | --- | --- | --- | --- | --- | --- | --- | --- | --- | --- |
| CCCCNc1nc(NCc2ccccc2)c2ccccc2n1 | 12 | 3.3 (≈ 1.01 µg/mL) | ≤ 20 | ≥ 30 | 3.8 | 2.84 | 0.98 µM (≈ 0.3 µg/mL) | inactive | Active | Active | 0.11 | 40 | 70 | 69 | 1250 | 161 | viability [8]: > 60%; viability at up to 16 µM [9]: > 100%; viability at up to 410 µM [10]: > 95% |
| CC(C)Nc1nc(NC2CCCCC2)c2ccccc2n1 | 13 | 3.5 (≈ 0.995 µg/mL) | ≤ 30 | ≥ 30 | 4.69 | 3.56 | 8.8 µM (≈ 2.5 µg/mL) | inactive | Active | Active | 0.1 | 40 | 70 | – | 783 | 112 | viability [20]: > 60%; viability at up to 8.8 µM [21]: > 100%; viability at 18 µM [22]: 98.6%; viability at 440 µM [23]: 70.3% |
| Cc1c(N2CC[C@@H]([C@H](C)N)C2)c(F)cc2c(=O)[nH]c(=O)n(C3CC3)c12 | – | – | – | – | – | – | – | – | – | – | – | – | – | – | – | – | MIC90 (Staphylococcus): 0.5 µg/mL (≈ 1.44 µM); MIC90 (Streptococcus): 0.06 µg/mL (≈ 0.173 µM); MIC90 (Moraxella catarrhalis): 0.5 µg/mL (≈ 1.44 µM); MIC90 (Haemophilus influenzae): 0.5 µg/mL (≈ 1.44 µM); MIC90 (Listeria monocytogenes): 0.5 µg/mL (≈ 1.44 µM); MIC90 (Legionella pneumophila): 0.5 µg/mL (≈ 1.44 µM); MIC90 (Neisseria sp.): 0.5 µg/mL (≈ 1.44 µM); ED50 (Staphylococcus aureus [24]): 2.5 mg/kg; MIC (Enterococcus): 2 µg/mL (≈ 5.77 µM) |
| CCCCNc1nc(NCCCC)c2ccccc2n1 | 12 | 0.37 (≈ 0.101 µg/mL) | – | – | – | – | 0.036 µM (≈ 0.00981 µg/mL) | inactive | – | – | – | – | – | – | – | – | viability [25]: > 50%; viability [26]: 100%; viability at up to 459 µM [27]: 58.8% |
| Cc1cc(NS(=O)(=O)c2ccc(N)cc2)no1 [SULFAMETHOXAZOLE] | – | – | – | – | – | – | – | – | – | – | – | – | – | – | – | – | MIC (Staphylococcus aureus [28]): 2400 µM (≈ 608 µg/mL) |
| c1ccc(CNc2nc(NCc3ccccc3)c3ccccc3n2)cc1 | 13 | 2.9 (≈ 0.987 µg/mL) | ≤ 10 | ≥ 30 | 3.82 | 2.82 | inactive | inactive | Active | Active | 0.12 | 50 | – | 69 | 383 | 312 | viability [29]: > 60%; viability at 1.5 µM [30]: 93.2%; viability at 370 µM [31]: 83.6%; MIC (Staphylococcus aureus [32]): > 590 µM; MIC (Staphylococcus aureus [33]): > 590 µM; MIC (Staphylococcus aureus [34]): > 590 µM; MIC (Staphylococcus aureus [35]): > 590 µM; MIC (Staphylococcus aureus [36]): > 590 µM; MIC (Staphylococcus aureus [37]): > 590 µM; MIC (Staphylococcus aureus [38]): > 590 µM; MIC (Staphylococcus aureus [39]): > 590 µM; Activity (Staphylococcus aureus [40]): Active; Activity (Staphylococcus aureus [41]): Active |
